The values below come from publication PMC9377006, “Discovery of Desmuramylpeptide NOD2 Agonists with Single-Digit Nanomolar Potency” (ACS Medicinal Chemistry Letters, 2022).

The target of one assay is T1, human NOD2 (Homo sapiens, UniProt Q9HC29).
T1 construct: host or cells: HEK-Blue NOD2 cells (derived from HEK293)
Nature of the assay: HEK-Blue NOD2 NF-κB SEAP reporter assay (NOD2 agonistic activity). In kind it is cell-based. The method, then:
The synthesized desmuramylpeptides were evaluated for their dose-dependent NOD2 activity using the commercially available HEK-Blue NOD2 reporter cell line. This cell line is derived from HEK293 cells by cotransfection of human NOD2 and an NF-κB-inducible secreted embryonic alkaline phosphatase (SEAP). Activation of NOD2 and subsequently of NF-κB leads to the expression and secretion of SEAP, the level of which can be quantified colorimetrically. […]
two passages, 200 µg/mL Zeocin (Invivogen) was added to the medium every other passage to maintain selection pressure. The cells were incubated in a humidified atmosphere at 37 °C and 5% CO 2. […]
Aldrich), and 100 µg/mL streptomycin (Sigma -Aldrich).
The tested compounds were dissolved in DMSO and further di luted in culture medium to the desired final concentrations, such that the final DMSO concentration never exceeded 0.1%. […]
4.6 NOD1/NOD2-NF-kB reporter assay
HEK-Blue NOD2 or NOD1 cells were seeded (25,000 cells/well) in 96 -well plates in 100 µL HEK-Blue detection medium (Invivogen, San Diego, CA, USA) and treated with compounds ( 2 µM for fixed […]
the corresponding vehicle (0.1% DMSO). After 18 h of incubation (37 °C, 5% CO2), secreted embryonic alkaline phosphatase (SEAP) activity was determined spectrophotometrically as absorbance at 630 nm (BioTek Synergy microplate reader; Winooski, VT, USA). EC50 values were calculated using Prism software (version 9; GraphPad Software, CA, USA). The experiments were run in duplicates and repeated as at least three independent biological replicates. […]
In general terms: Reporter assays use an easily measured gene product as a stand-in for the process of interest.

For the next assay, the system named is RAW-Blue cells. Nature of the assay: NF-κB transcriptional response in RAW-Blue reporter cells. It counts as cell-based, mouse. Particulars: 1 µM, 18 h, with or without NOD2 antagonist SG84 10 µM. An excerpt: Given that cells of the monocyte-macrophage lineage are among the primary responders to NOD2 stimuli,[28] we also examined the effect of 40 on the NF-κB transcriptional response in RAW-Blue reporter cells. These cells, which, similarly to the HEK-Blue cells described above, stably express an NF-κB-inducible SEAP reporter gene, are derived from RAW264.7 mouse macrophages, which in addition to NOD2 also express NOD1 and most Toll-like receptors (TLRs).
Figure S4. NF-kB transcriptional response in the RAW-Blue mouse macrophage reporter cell line. […] Statistical significance was determined by one-way ANOVA followed by Bonferroni’s multiple comparisons test; ***, p < 0.001 versus vehicle-treated control; ###, p < 0.001 versus MDP, 40, or LPS alone; ns, not significant. […]
RAW-Blue cells were seeded (100,000 cells/well) in 96 -well plates in 200 µL growth medium (without Normocin and Zeocin) and treated with MDP (1 µM) or 40 (1 µM), in the presence or absence of LPS ( 10 ng/mL), or the corresponding vehicle (0.1% DMSO). […] After 2 h of incubation (37 °C), SEAP activity was determined spectrophotometrically as absorbance at 630 nm (BioTek Synergy microplate reader; Winooski, VT, USA). […]
Cytokine production was determined with BD Cytometric Bead Array human inflammatory cytokines kit […]

T1 sequence (Q9HC29 whole entry): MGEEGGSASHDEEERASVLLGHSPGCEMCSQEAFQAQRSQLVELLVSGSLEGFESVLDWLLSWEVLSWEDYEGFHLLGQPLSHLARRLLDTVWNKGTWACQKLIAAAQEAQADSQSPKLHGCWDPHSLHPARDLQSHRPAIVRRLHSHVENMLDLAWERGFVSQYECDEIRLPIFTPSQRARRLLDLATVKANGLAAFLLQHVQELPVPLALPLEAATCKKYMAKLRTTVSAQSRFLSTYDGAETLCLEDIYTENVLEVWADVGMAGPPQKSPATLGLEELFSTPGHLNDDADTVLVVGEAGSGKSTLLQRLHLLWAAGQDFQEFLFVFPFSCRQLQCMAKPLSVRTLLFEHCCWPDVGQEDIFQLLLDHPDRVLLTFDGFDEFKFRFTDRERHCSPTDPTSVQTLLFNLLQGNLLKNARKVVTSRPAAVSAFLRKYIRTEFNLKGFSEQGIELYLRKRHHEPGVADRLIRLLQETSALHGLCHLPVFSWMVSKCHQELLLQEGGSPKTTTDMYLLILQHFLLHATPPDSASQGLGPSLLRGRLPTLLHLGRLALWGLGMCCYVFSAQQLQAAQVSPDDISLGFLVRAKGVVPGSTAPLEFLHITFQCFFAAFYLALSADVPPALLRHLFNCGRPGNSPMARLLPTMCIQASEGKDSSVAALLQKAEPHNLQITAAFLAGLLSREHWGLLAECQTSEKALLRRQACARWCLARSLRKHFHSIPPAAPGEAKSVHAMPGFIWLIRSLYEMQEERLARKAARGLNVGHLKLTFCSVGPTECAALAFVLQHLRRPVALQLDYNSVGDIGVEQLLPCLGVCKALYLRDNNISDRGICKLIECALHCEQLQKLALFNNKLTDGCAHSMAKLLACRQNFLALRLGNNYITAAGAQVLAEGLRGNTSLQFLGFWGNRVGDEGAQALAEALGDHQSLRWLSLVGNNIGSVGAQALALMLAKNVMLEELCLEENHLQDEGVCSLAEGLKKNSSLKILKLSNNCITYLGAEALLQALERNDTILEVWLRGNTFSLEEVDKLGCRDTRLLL

Take `CCOC(=O)CC[C@@H](NC(=O)[C@@H](NC(=O)CNC(=O)/C=C/c1ccc(OC(=O)CC23CC4CC(CC(C4)C2)C3)c(OC)c1)C(C)C)C(=O)OCC` [Compound 40]: the EC50 (commonly the concentration needed to bring the measured effect to its halfway point) at human NOD2 (HEK-Blue NOD2 cells, 18 h, means ± SEMs of at least three independent experiments, 8 or 16 concentrations (0.1 nM to 20 μM)) is 4.5 ± 1.1 nM. For the same compound, the “improvement of activity relative to 1” value at human NOD2 (NOD2 EC50 versus compound 1) was determined as 20 factor. In the assay with RAW-Blue cells, the “activation of RAW-Blue cells (NF-κB transcriptional response)” value is reported as “activate RAW-Blue cells in a NOD2-dependent manner”.
